Like-named read-outs stand apart in the source and are kept apart here. Marks after values point to notes of the source that are not given here.
Key:
[1] = system: phalloidine-induced damage to the liver; assay: Anti-phalloidine effect: serum enzymes GOT and GPT (Experiment C); format: in vivo, mice (female SPF-mice, stock NMRI); conditions: 140.5 mg/kg i.v. as N-methyl glucamine salt 1 hour before phalloidine 1.5 mg/kg i.p.
Protocol: As an additional pharmacological measurement, the antiphalloidine effect of Compound C as its N-methyl glucamine salt i.v. was subsequently determined.
1.5 mg phalloidine, predissolved in 3 ml methanol ad 20 ml
Experimental animals were female SPF-mice, stock NMRI, of the firm of Voss, Tuttlingen, having a weight of about 25 g. All animals were housed under identical conditions and were given "Ssniff" standard food and drinking water ad libitum. Compound C as its N-methyl glucamine salt was injected in a dosage of 140.5 mg/kg i.v. 1 hour before the phalloidine poisoning (1.5 mg/kg i.p.). The control animals received 40.5 mg/kg N-methyl glucamine salt i.v. after a period of 24 hours subsequent to the damage to the liver, blood was taken from the mice from the retroorbital venae plexus for the determination of the serum enzymes GOT and GPT.

mice = assay: Acute toxicity / acute tolerance after i.v. injection in mice (Experiment A); format: in vivo, mice (male and female SPF-mice, stock NMRI); conditions: for death rate/No. / death rate %: 14 days observation; for death rate/day, 2nd: 2nd day; for death rate/day, 3rd: 3rd day; for death rate/day, 1st: 1st day; for acute symptoms of non-tolerance: mice; for DL50, converted to the free compound: given as N-methyl glucamine salt, expressed as Compound
Protocol: (§1) The acute toxicity of the compounds of the invention was tested on mice, and since the substances are substantially nontoxic after oral administration, the acute tolerance of the two Compounds B and C in their methyl glucamine salts form was determined after i.v. injection. This form of preparation was also chosen for the pharmacological measurement of the antiphalloidine effect.
(§2) Experimental animals were male and female SPF-mice, stock NMRI, of the firm of Voss, Tuttlingen, Germany, having a weight of about 25-30 g. each. All animals were housed under identical conditions and were given "Sniff" standard food and drinking water ad libitum. The mice were administered the dosages once in 20 ml 0.9% NaCl+4% PVP/kg i.v. at an injection rate of approximately 1 ml/min. The observation time was 14 days.
(§3) 1. Compound B as N-methyl glucamine salt.
(§4) 2. Compound C as N-methyl glucamine salt.
(§5) 3. Polyvinyl pyrrolidone (PVP) of Fluka, mol. wt.~10,000 stock solution: 4% PVP dissolved in 0.9% NaCl.

[2] = as above; format: in vivo, mice (male and female SPF-mice, stock NMRI); conditions: mouse, in vivo, iv; for mortality at 336 h: N-methyl glucamine salt, 14 days observation, read-out: death rate %; for LD50 at 336 h: i.v., given as N-methyl glucamine salt, expressed as Compound, read-out: DL50, converted to the free compound
Protocol: as §1, §2, §3, §4, §5

[3] = system: liver damage induced by phalloidine; assay: Anti-phalloidine effect: death rate and survival time after phalloidine poisoning (Experiment B); format: in vivo, mice (male and female, homebred strain, stock Garvens); conditions: 140.5 mg/kg i.v. as N-methyl glucamine salt 1 hour before phalloidine 3 mg/kg i.p.
Protocol: The liver-protective effect of the compounds B and C according to the invention in the form of their water-soluble N-methyl glucamine salts was tested on mice by antagonizing liver damage induced by phalloidine with treatment using the compounds of the invention.
140.5 mg of Compound B/25 ml 0.9% NaCl+4% PVP/kg i.v.
40.5 mg MG/25 ml 0.9% NaCl+4% PVP/[…] i.v.
Phalloidine, predissolved in 3 ml methanol to 20 ml 0.9%
Experimental animals were male and female mice of a homebred strain, stock Garvens, having a weight of about 20-25 g. All animals were housed under identical conditions and were given "Ssniff" standard food and drinking water ad libitum.
Compound B as its N-methyl glucamine salt was injected in a dosage of 140.5 mg/kg i.v. 1 hour prior to administration of phalloidine at 3 mg/kg i.p. (to induce damage to the liver). The control animals received 40.5 mg/kg N-methyl glucamine salt i.v. The death rate and survival time after the phalloidine poisoning were registered. The observation time was 7 days.

[4] = female mice, 424.3 mg/kg i.v., N-methyl glucamine salt
[5] = female mice, 504.6 mg/kg i.v., N-methyl glucamine salt
[6] = female mice, 600 mg/kg i.v., N-methyl glucamine salt
[7] = male mice, 424.3 mg/kg i.v., N-methyl glucamine salt
[8] = male mice, 504.6 mg/kg i.v., N-methyl glucamine salt
[9] = male mice, 600 mg/kg i.v., N-methyl glucamine salt
[10] = female mice, 570 mg/kg i.v., N-methyl glucamine salt
[11] = female mice, 680 mg/kg i.v., N-methyl glucamine salt
[12] = female mice, 800 mg/kg i.v., N-methyl glucamine salt
[13] = female mice, 960 mg/kg i.v., N-methyl glucamine salt
[14] = male mice, 425 mg/kg i.v., N-methyl glucamine salt
[15] = male mice, 714.1 mg/kg i.v., N-methyl glucamine salt
[16] = male mice, 850 mg/kg i.v., N-methyl glucamine salt
[17] = male mice, 1200 mg/kg i.v., N-methyl glucamine salt
[18] = male mice, 1700 mg/kg i.v., N-methyl glucamine salt

COc1cc(C2Oc3c(O)cc(CC(=O)C(=O)c4c(O)cc(O)cc4O)cc3C2CO)ccc1O (stereo not drawn) [Compound C]
damage to the liver, measured by the increase of serum enzymes GOT and GPT [1]: entirely prevented
GPT in the serum ([1]; female mice, 24 hours after, control 667.4±324.6): 13.4±0.9 mU/ml
GOT in the serum ([1]; female mice, 24 hours after, control 1489.2±904.7): 38.7±2.9 mU/ml
death rate/No. (mice; female mice, 300 mg/kg i.v., N-methyl glucamine salt): 0/10
death rate/day, 2nd (mice; [4]): 1
death rate/day, 3rd (mice; [4]): 5
death rate/day, 4th (mice; female mice, 424.3 mg/kg i.v., N-methyl glucamine salt, 4th day): 2
death rate/No. (mice; [4]): 8/10
death rate/day, 1st (mice; [5]): 5
death rate/No. (mice; [5]): 5/5
death rate/day, 1st (mice; [6]): 5
death rate/No. (mice; [6]): 5/5
death rate/No. (mice; male mice, 300 mg/kg i.v., N-methyl glucamine salt): 0/10
death rate/day, 2nd (mice; [7]): 3
death rate/day, 3rd (mice; [7]): 1
death rate/No. (mice; [7]): 4/10
death rate/day, 1st (mice; [8]): 5
death rate/No. (mice; [8]): 5/5
death rate/day, 1st (mice; [9]): 5
death rate/No. (mice; [9]): 5/5
acute symptoms of non-tolerance (mice; i.v., N-methyl glucamine salt): accelerated respiration, laying on their side, and clonic tonic cramps before death actually occurred
mortality at 336 h ([2]; 300 mg/kg, female mice, 300 mg/kg i.v.): 0%
mortality at 336 h ([2]; 300 mg/kg, male mice, 300 mg/kg i.v.): 0%
mortality at 336 h ([2]; 424.3 mg/kg, female mice, 424.3 mg/kg i.v.): 80%
mortality at 336 h ([2]; 424.3 mg/kg, male mice, 424.3 mg/kg i.v.): 40%
mortality at 336 h ([2]; 504.6 mg/kg, female mice, 504.6 mg/kg i.v.): 100%
mortality at 336 h ([2]; 504.6 mg/kg, male mice, 504.6 mg/kg i.v.): 100%
mortality at 336 h ([2]; 600 mg/kg, female mice, 600 mg/kg i.v.): 100%
mortality at 336 h ([2]; 600 mg/kg, male mice, 600 mg/kg i.v.): 100%
LD50 at 336 h ([2]; female mice): 274 mg/kg
LD50 at 336 h ([2]; male mice): 295 mg/kg

COc1cc(C2Oc3cc(CC(=O)C(=O)c4c(O)cc(O)cc4O)ccc3OC2CO)ccc1O (stereo not drawn) [Compound B]
phalloidine poisoning (DL80) measured by death rate and survival time [3]: prevented
death rate ([3]; male and female mice, 7 days, control 80%): 0%
death rate % (mice; [10]): 0%
death rate/No. (mice; [10]): 0/10
death rate/day, 1st (mice; [11]): 1
death rate % (mice; [11]): 10%
death rate/No. (mice; [11]): 1/10
survival time span (mice; female mice, 680 mg/kg i.v., N-methyl glucamine salt, ' = minutes, ^h = hours): ~23^h minutes-hours
death rate/day, 1st (mice; [12]): 3
death rate % (mice; [12]): 30%
death rate/No. (mice; [12]): 3/10
death rate/day, 1st (mice; [13]): 7
death rate % (mice; [13]): 70%
death rate/No. (mice; [13]): 7/10
DL50, converted to the free compound (mice; female mice, i.v., 20160 min): 604.98 mg/kg
death rate % (mice; [14]): 0%
death rate/No. (mice; [14]): 0/5
death rate % (mice; [9]): 0%
death rate/No. (mice; [9]): 0/10
death rate/day, 1st (mice; [15]): 1
death rate/day, 3rd (mice; [15]): 2
death rate % (mice; [15]): 30%
death rate/No. (mice; [15]): 3/10
death rate/day, 1st (mice; [16]): 8
death rate % (mice; [16]): 80%
death rate/No. (mice; [16]): 8/10
death rate/day, 1st (mice; [17]): 5
death rate % (mice; [17]): 100%
death rate/No. (mice; [17]): 5/5
death rate/day, 1st (mice; [18]): 3
death rate % (mice; [18]): 100%
death rate/No. (mice; [18]): 3/3
DL50 (mice; male mice, i.v., dose as N-methyl glucamine salt, 20160 min): 820 ± 34 mg/kg
DL50, converted to the free compound (mice; male mice, i.v., 20160 min): 583.63 mg/kg
acute symptoms of non-tolerance (mice; i.v., N-methyl glucamine salt): accelerated respiration, laying on their side, and clonic tonic cramps before death actually occurred
